Tests used:
Assay in all cases: relative viability (nuclei count vs DMSO), 5 days (fraction); higher = more cells survive
RO-3306 + Trametinib = compound: C1=CC2=C(C=CC(=C2)C=C3C(=O)NC(=NCC4=CC=CS4)S3)N=C1 [RO-3306] + CC(=O)Nc1cccc(-n2c(=O)n(C3CC3)c(=O)c3c(Nc4ccc(I)cc4F)n(C)c(=O)c(C)c32)c1 [Trametinib] (partner 0.02 µM)
Procedure, shortened: (§1)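 Nuclei were stained with Hoechst during a one-step fixation (final 0.05% Triton X-100, 1% formaldehyde, 1 ug/ml Hoechst) carried out 5 days after dosing, then counted on 4× images. The cells, lung cancer lines in 1536-well plates, had been dosed by pin tool the day after seeding with one drug alone or a fixed anchor-drug dose plus five library-drug doses (not always all listed) in √10 steps. Relative viability is the nuclei count in treated wells divided by that in vehicle wells, and each value is the median of duplicate plates.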

RO-3306 + Luminespib = compound: C1=CC2=C(C=CC(=C2)C=C3C(=O)NC(=NCC4=CC=CS4)S3)N=C1 [RO-3306] + CCNC(=O)c1noc(-c2cc(C(C)C)c(O)cc2O)c1-c1ccc(CN2CCOCC2)cc1 [Luminespib] (partner 0.01 µM)
Procedure, shortened: as §1

RO-3306 + OSI-027 = compound: C1=CC2=C(C=CC(=C2)C=C3C(=O)NC(=NCC4=CC=CS4)S3)N=C1 [RO-3306] + COc1cccc2cc(-c3nc([C@H]4CC[C@H](C(=O)O)CC4)n4ncnc(N)c34)[nH]c12 [OSI-027] (partner 0.5 µM)
Procedure, shortened: as §1

RO-3306 + Decitabine = compound: C1=CC2=C(C=CC(=C2)C=C3C(=O)NC(=NCC4=CC=CS4)S3)N=C1 [RO-3306] + Nc1ncn([C@H]2C[C@H](O)[C@@H](CO)O2)c(=O)n1 [Decitabine] (partner 2 µM)
Procedure, shortened: as §1

Cell Line	relative viability (RO-3306 + Trametinib; first compound 0.01 µM)	relative viability (RO-3306 + Trametinib; first compound 0.03162 µM)	relative viability (RO-3306 + Trametinib; first compound 0.1 µM)	relative viability (RO-3306 + Trametinib; first compound 0.3162 µM)	relative viability (RO-3306 + Trametinib; first compound 1 µM)	relative viability (RO-3306 + Luminespib; first compound 0.01 µM)	relative viability (RO-3306 + Luminespib; first compound 0.03162 µM)	relative viability (RO-3306 + Luminespib; first compound 0.1 µM)	relative viability (RO-3306 + Luminespib; first compound 0.3162 µM)	relative viability (RO-3306 + Luminespib; first compound 1 µM)	relative viability (RO-3306 + OSI-027; first compound 0.01 µM)	relative viability (RO-3306 + OSI-027; first compound 0.03162 µM)	relative viability (RO-3306 + OSI-027; first compound 0.1 µM)	relative viability (RO-3306 + OSI-027; first compound 0.3162 µM)	relative viability (RO-3306 + OSI-027; first compound 1 µM)	relative viability (RO-3306 + Decitabine; first compound 0.01 µM)	relative viability (RO-3306 + Decitabine; first compound 0.03162 µM)	relative viability (RO-3306 + Decitabine; first compound 0.1 µM)	relative viability (RO-3306 + Decitabine; first compound 0.3162 µM)	relative viability (RO-3306 + Decitabine; first compound 1 µM)
NCI-H520	0.896	0.629	0.569	0.714	0.756	0.252	0.212	0.249	0.218	0.23	0.288	0.283	0.225	0.254	0.304	0.568	0.542	0.469	0.501	0.554
NCI-H522	0.652	0.521	0.664	0.712	0.666	1.04	1.12	1.13	1.14	1.22	0.68	0.695	0.622	0.711	0.715	0.736	0.544	0.712	0.775	0.638
NCI-H596	0.798	0.773	0.722	0.793	0.58	1.06	0.853	1.13	0.84	0.974	0.788	0.72	0.7	0.729	0.579	0.985	0.805	0.882	1.02	0.891
NCI-H647	0.538	0.38	0.457	0.486	0.533	0.234	0.121	0.122	0.174	0.322	0.644	0.608	0.636	0.84	0.673	0.479	0.336	0.417	0.429	0.405
NCI-H650	0.981	0.939	0.921	1.1	0.941	0.716	0.755	0.813	0.798	0.789	0.473	0.471	0.492	0.483	0.501	0.292	0.33	0.283	0.259	0.352
NCI-H661	0.691	0.503	0.584	0.586	0.567	0.869	1.02	0.934	0.953	0.936	0.853	0.597	0.695	0.72	0.701	0.589	0.507	0.525	0.581	0.585
NCI-H727	0.39	0.388	0.355	0.352	0.409	0.244	–	0.453	0.906	0.3	0.567	0.548	0.557	0.608	0.674	0.834	0.751	0.891	0.888	0.846
NCI-H838	0.596	0.487	0.54	0.557	0.45	0.523	0.274	0.24	0.316	0.221	0.334	0.394	0.35	0.412	0.373	0.512	0.443	0.425	0.466	0.412
NCI-H1355	0.472	0.324	0.404	0.448	0.376	0.888	–	0.68	0.84	0.68	0.379	–	0.378	0.375	0.337	0.395	0.341	0.353	0.355	0.362
NCI-H1395	1.24	0.983	0.886	1.1	0.916	0.915	0.878	0.622	0.653	0.519	0.598	0.674	0.502	0.618	0.612	0.663	0.699	0.656	0.68	0.724
NCI-H1437	0.539	0.409	0.54	0.543	0.527	1.17	1.02	1.09	1.11	1.17	0.936	0.814	0.825	0.912	0.878	0.59	0.513	0.549	0.596	0.631
NCI-H1650	0.6	0.505	0.514	0.565	0.447	0.183	0.217	0.2	0.227	0.224	0.715	0.409	0.516	0.637	0.587	0.482	0.456	0.427	0.472	0.407
NCI-H1651	0.805	0.803	0.828	0.826	0.8	1.21	0.873	0.857	1.03	0.802	0.796	0.564	0.633	0.794	0.609	0.671	0.562	0.587	0.664	0.58
NCI-H1666	0.792	0.665	0.835	0.765	0.783	0.929	0.883	1.05	1.05	0.891	0.747	0.73	0.749	0.817	0.853	0.729	0.75	0.736	0.711	0.641
NCI-H1734	0.757	0.607	0.61	0.685	0.628	0.168	0.172	0.205	0.195	0.171	0.653	0.582	0.529	0.615	0.514	0.621	0.471	0.471	0.566	0.502
NCI-H1755	0.859	0.768	0.791	0.803	0.771	0.435	0.3	0.275	0.269	0.484	0.777	0.736	0.652	0.702	0.635	0.73	0.739	0.728	0.706	0.707
NCI-H1792	0.508	–	0.372	0.585	0.413	0.587	–	0.568	0.349	0.341	0.896	–	0.743	0.81	0.551	0.702	–	0.47	0.606	0.481
NCI-H1793	0.479	–	0.408	0.43	0.513	0.129	0.162	0.195	0.205	0.191	0.266	0.277	0.291	0.251	0.262	0.415	–	0.403	0.49	0.493
NCI-H1915	0.319	0.276	0.297	0.32	0.292	0.975	0.493	0.879	0.805	0.749	0.698	0.594	0.613	0.637	0.396	0.245	0.262	0.252	0.239	0.251
NCI-H1944	0.387	0.403	0.428	0.445	0.41	0.83	0.667	0.681	0.62	0.678	0.399	0.366	0.361	0.394	0.335	0.424	0.432	0.424	0.453	0.376
NCI-H1975	0.348	0.319	0.309	0.33	0.331	0.443	0.142	0.242	0.175	0.294	0.959	0.614	0.655	0.788	0.613	0.336	0.386	0.376	0.405	0.5
NCI-H1993	0.506	0.546	0.6	0.533	0.439	0.792	0.697	0.913	0.799	0.746	0.6	0.581	0.507	0.614	0.543	0.616	0.493	0.486	0.575	0.657
NCI-H2009	0.283	0.272	0.247	0.273	0.254	1.1	0.979	1.07	0.992	0.976	0.656	0.56	0.624	0.622	0.615	0.385	0.373	0.351	0.382	0.371
NCI-H2023	0.554	0.442	0.444	0.509	0.529	0.681	0.723	0.643	0.534	0.396	0.429	0.373	0.36	0.419	0.283	0.25	0.285	0.208	0.218	0.213
NCI-H2085	0.509	0.632	0.527	0.613	0.595	0.377	0.499	0.517	0.437	0.46	0.598	0.728	0.642	0.664	0.635	0.54	0.506	0.463	0.539	0.578
NCI-H2087	0.176	0.193	0.188	0.234	0.202	0.196	0.175	0.149	0.23	0.17	0.534	0.462	0.529	0.539	0.538	0.296	0.276	0.253	0.251	0.25
NCI-H2126	0.555	0.488	0.577	0.584	0.476	0.867	0.858	0.895	1	0.949	0.627	0.597	0.707	0.708	0.727	0.528	0.561	0.637	0.586	0.57

From the supplement of paper PMC10307832
